Legend:
Assay in all cases: Test B pre-/postemergence plant response
Format in all cases: in vivo
[1] = test system: goosegrass (Eleusine indica); details: for Goosegrass plant response rating: 8 g ai/ha
How it was run: (§1)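 Seeds were sown and sprayed preemergence, while plants at 2 to 18 cm (1- to 4-leaf stage) got postemergence sprays. Compounds were formulated in a non-phytotoxic solvent mixture with surfactant. After 13 to 15 days in a greenhouse, injury was rated visually against untreated controls, 0 (no effect) to 100 (complete control).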

[2] = test system: large crabgrass (Digitaria sanguinalis); details: for Crabgrass, Large plant response rating: 8 g ai/ha
How it was run: as §1

[3] = test system: kochia (Kochia scoparia); details: for Kochia plant response rating: 8 g ai/ha
How it was run: as §1

[4] = test system: soybean (Glycine max); details: for Soybean plant response rating: 8 g ai/ha
How it was run: as §1

[5] = test system: surinam grass (Brachiaria decumbens); details: for Surinam Grass plant response rating: 8 g ai/ha
How it was run: as §1

[6] = test system: blackgrass (Alopecurus myosuroides); details: for Blackgrass plant response rating: 8 g ai/ha
How it was run: as §1

[7] = test system: eastern black (E.B.) nightshade (Solanum ptycanthum); details: Preemergence; for Nightshade, E. B. plant response rating: 8 g ai/ha
How it was run: as §1

[8] = test system: common (oilseed) sunflower (Helianthus annuus); details: Preemergence; for Sunflower plant response rating: 8 g ai/ha
How it was run: as §1

[9] = test system: green foxtail (Setaria viridis); details: for Foxtail, Green plant response rating: 8 g ai/ha
How it was run: as §1

[10] = test system: morningglory (Ipomoea coccinea); details: for Morningglory plant response rating: 8 g ai/ha
How it was run: as §1

[11] = test system: common ragweed (Ambrosia elation); details: for Ragweed plant response rating: 8 g ai/ha
How it was run: as §1

[12] = test system: lambsquarters (Chenopodium album); details: for Lambsquarters plant response rating: 8 g ai/ha
How it was run: as §1

[13] = test system: wild oat (Avena fatua); details: for Oat, Wild plant response rating: 8 g ai/ha
How it was run: as §1

[14] = test system: wheat (Triticum aestivum); details: for Wheat plant response rating: 8 g ai/ha
How it was run: as §1

[15] = Postemergence, 16 g ai/ha, scale 0 to 100
[16] = Postemergence, 31 g ai/ha, scale 0 to 100, 0 no effect, 100 complete control
[17] = Postemergence, 62 g ai/ha, scale 0 to 100, 0 no effect, 100 complete control
[18] = Preemergence, 16 g ai/ha, scale 0 to 100 (0 no effect, 100 complete control)
[19] = Preemergence, 31 g ai/ha, 0 to 100 scale, 0 no effect, 100 complete control
[20] = Preemergence, 62 g ai/ha, scale 0 to 100
[21] = 16 g ai/ha, scale 0 to 100 (0 no effect, 100 complete control)
[22] = 31 g ai/ha, 0 to 100 scale, 0 no effect, 100 complete control

Cc1cc(-c2ccc(Cl)cc2)nn1-c1c(OS(=O)(=O)c2ccccc2)cnn(C)c1=O [Compound 35]
Goosegrass plant response rating ([1]; postemergence, 0-100 scale): 20
Plant response rating, Goosegrass [1, 15]: 40
Plant response rating, Goosegrass [1, 16]: 70
Plant response rating, Goosegrass [1, 17]: 75
Plant response rating, Goosegrass [1, 18]: 100
Plant response rating, Goosegrass [1, 19]: 100
Plant response rating, Goosegrass [1, 20]: 100
Goosegrass plant response rating ([1]; Preemergence, scale 0 to 100): 80
Crabgrass, Large plant response rating ([2]; postemergence, 0-100 scale): 60
Plant response rating, Crabgrass, Large [2, 15]: 70
Plant response rating, Crabgrass, Large [2, 16]: 80
Plant response rating, Crabgrass, Large [2, 17]: 100
Plant response rating, Crabgrass, Large [2, 18]: 100
Plant response rating, Crabgrass, Large [2, 19]: 100
Plant response rating, Crabgrass, Large [2, 20]: 100
Crabgrass, Large plant response rating ([2]; Preemergence, scale 0 to 100): 90
Kochia plant response rating ([3]; postemergence, 0-100 scale): 0
Plant response rating, Kochia [3, 15]: 0
Plant response rating, Kochia [3, 16]: 0
Plant response rating, Kochia [3, 17]: 0
Plant response rating, Kochia [3, 18]: 0
Plant response rating, Kochia [3, 19]: 0
Kochia plant response rating ([3]; Preemergence, scale 0 to 100): 0
Soybean plant response rating ([4]; postemergence, 0-100 scale): 0
Plant response rating, Soybean [4, 15]: 0
Plant response rating, Soybean [4, 17]: 0
Plant response rating, Soybean [4, 18]: 0
Plant response rating, Soybean [4, 19]: 0
Plant response rating, Soybean [4, 20]: 0
Soybean plant response rating ([4]; Preemergence, scale 0 to 100): 0
Surinam Grass plant response rating ([5]; postemergence, 0-100 scale): 70
Plant response rating, Surinam Grass [5, 15]: 95
Plant response rating, Surinam Grass [5, 17]: 100
Plant response rating, Surinam Grass [5, 18]: 90
Plant response rating, Surinam Grass [5, 19]: 100
Plant response rating, Surinam Grass [5, 20]: 100
Surinam Grass plant response rating ([5]; Preemergence, scale 0 to 100): 45
Blackgrass plant response rating ([6]; postemergence, 0-100 scale): 0
Plant response rating, Blackgrass [6, 15]: 60
Plant response rating, Blackgrass [6, 16]: 70
Plant response rating, Blackgrass [6, 17]: 90
Plant response rating, Blackgrass [6, 18]: 85
Plant response rating, Blackgrass [6, 19]: 100
Plant response rating, Blackgrass [6, 20]: 100
Blackgrass plant response rating ([6]; Preemergence, scale 0 to 100): 0
Plant response rating, Nightshade, E. B. [7, 21]: 0
Plant response rating, Nightshade, E. B. [7, 22]: 0
Plant response rating, Nightshade, E. B. ([7]; 62 g ai/ha, scale 0 to 100): 0
Nightshade, E. B. plant response rating ([7]; scale 0 to 100): 0
Plant response rating, Sunflower [8, 21]: 0
Plant response rating, Sunflower [8, 22]: 0
Plant response rating, Sunflower ([8]; 62 g ai/ha, scale 0 to 100): 0
Sunflower plant response rating ([8]; scale 0 to 100): 0
Foxtail, Green plant response rating ([9]; postemergence, 0-100 scale): 0
Plant response rating, Foxtail, Green [9, 15]: 75
Plant response rating, Foxtail, Green [9, 16]: 95
Plant response rating, Foxtail, Green [9, 17]: 95
Plant response rating, Foxtail, Green [9, 18]: 100
Plant response rating, Foxtail, Green [9, 19]: 100
Plant response rating, Foxtail, Green [9, 20]: 100
Foxtail, Green plant response rating ([9]; Preemergence, scale 0 to 100): 30
Morningglory plant response rating ([10]; postemergence, 0-100 scale): 0
Plant response rating, Morningglory [10, 15]: 0
Plant response rating, Morningglory [10, 16]: 0
Plant response rating, Morningglory [10, 17]: 0
Plant response rating, Morningglory [10, 18]: 0
Plant response rating, Morningglory [10, 19]: 0
Plant response rating, Morningglory [10, 20]: 10
Morningglory plant response rating ([10]; Preemergence, scale 0 to 100): 0
Ragweed plant response rating ([11]; postemergence, 0-100 scale): 0
Plant response rating, Ragweed [11, 15]: 0
Plant response rating, Ragweed [11, 16]: 0
Plant response rating, Ragweed [11, 17]: 0
Plant response rating, Ragweed [11, 18]: 0
Plant response rating, Ragweed [11, 19]: 0
Plant response rating, Ragweed [11, 20]: 0
Ragweed plant response rating ([11]; Preemergence, scale 0 to 100): 0
Lambsquarters plant response rating ([12]; postemergence, 0-100 scale): 0
Plant response rating, Lambsquarters [12, 15]: 0
Plant response rating, Lambsquarters [12, 16]: 0
Plant response rating, Lambsquarters [12, 17]: 0
Plant response rating, Lambsquarters [12, 18]: 0
Plant response rating, Lambsquarters [12, 19]: 0
Plant response rating, Lambsquarters [12, 20]: 0
Lambsquarters plant response rating ([12]; Preemergence, scale 0 to 100): 0
Oat, Wild plant response rating ([13]; postemergence, 0-100 scale): 50
Plant response rating, Oat, Wild [13, 15]: 70
Plant response rating, Oat, Wild [13, 16]: 85
Plant response rating, Oat, Wild [13, 17]: 95
Plant response rating, Oat, Wild [13, 19]: 80
Plant response rating, Oat, Wild [13, 20]: 95
Oat, Wild plant response rating ([13]; Preemergence, scale 0 to 100): 0
Wheat plant response rating ([14]; postemergence, 0-100 scale): 0
Plant response rating, Wheat [14, 15]: 35
Plant response rating, Wheat [14, 17]: 85
Plant response rating, Wheat [14, 18]: 0
Plant response rating, Wheat [14, 19]: 0
Plant response rating, Wheat [14, 20]: 30
Wheat plant response rating ([14]; Preemergence, scale 0 to 100): 0

Cc1cc(-c2ccc(Cl)cc2)nn1-c1c(OC(=O)CC(C)C)cnn(C)c1=O [Compound 37]
Goosegrass plant response rating ([1]; postemergence, 0-100 scale): 100
Plant response rating, Goosegrass [1, 15]: 100
Plant response rating, Goosegrass [1, 16]: 100
Plant response rating, Goosegrass [1, 17]: 100
Plant response rating, Goosegrass [1, 18]: 90
Plant response rating, Goosegrass [1, 19]: 98
Plant response rating, Goosegrass [1, 20]: 100
Goosegrass plant response rating ([1]; Preemergence, scale 0 to 100): 75
Crabgrass, Large plant response rating ([2]; postemergence, 0-100 scale): 70
Plant response rating, Crabgrass, Large [2, 15]: 70
Plant response rating, Crabgrass, Large [2, 16]: 85
Plant response rating, Crabgrass, Large [2, 17]: 100
Plant response rating, Crabgrass, Large [2, 18]: 98
Plant response rating, Crabgrass, Large [2, 19]: 100
Plant response rating, Crabgrass, Large [2, 20]: 100
Crabgrass, Large plant response rating ([2]; Preemergence, scale 0 to 100): 70
Kochia plant response rating ([3]; postemergence, 0-100 scale): 0
Plant response rating, Kochia [3, 15]: 0
Plant response rating, Kochia [3, 16]: 0
Plant response rating, Kochia [3, 17]: 0
Plant response rating, Kochia [3, 18]: 0
Plant response rating, Kochia [3, 19]: 0
Plant response rating, Kochia [3, 20]: 0
Kochia plant response rating ([3]; Preemergence, scale 0 to 100): 0
Soybean plant response rating ([4]; postemergence, 0-100 scale): 0
Plant response rating, Soybean [4, 15]: 0
Plant response rating, Soybean [4, 17]: 0
Plant response rating, Soybean [4, 18]: 0
Plant response rating, Soybean [4, 19]: 0
Plant response rating, Soybean [4, 20]: 0
Soybean plant response rating ([4]; Preemergence, scale 0 to 100): 0
Surinam Grass plant response rating ([5]; postemergence, 0-100 scale): 95
Plant response rating, Surinam Grass [5, 15]: 100
Plant response rating, Surinam Grass [5, 17]: 100
Plant response rating, Surinam Grass [5, 18]: 85
Plant response rating, Surinam Grass [5, 19]: 98
Plant response rating, Surinam Grass [5, 20]: 100
Surinam Grass plant response rating ([5]; Preemergence, scale 0 to 100): 65
Blackgrass plant response rating ([6]; postemergence, 0-100 scale): 10
Plant response rating, Blackgrass [6, 15]: 75
Plant response rating, Blackgrass [6, 16]: 90
Plant response rating, Blackgrass [6, 17]: 90
Plant response rating, Blackgrass [6, 18]: 100
Plant response rating, Blackgrass [6, 19]: 100
Plant response rating, Blackgrass [6, 20]: 100
Blackgrass plant response rating ([6]; Preemergence, scale 0 to 100): 95
Plant response rating, Nightshade, E. B. [7, 21]: 0
Plant response rating, Nightshade, E. B. [7, 22]: 0
Plant response rating, Nightshade, E. B. ([7]; 62 g ai/ha, scale 0 to 100): 0
Nightshade, E. B. plant response rating ([7]; scale 0 to 100): 0
Plant response rating, Sunflower [8, 21]: 0
Plant response rating, Sunflower [8, 22]: 0
Plant response rating, Sunflower ([8]; 62 g ai/ha, scale 0 to 100): 30
Sunflower plant response rating ([8]; scale 0 to 100): 0
Foxtail, Green plant response rating ([9]; postemergence, 0-100 scale): 60
Plant response rating, Foxtail, Green [9, 15]: 75
Plant response rating, Foxtail, Green [9, 16]: 80
Plant response rating, Foxtail, Green [9, 17]: 85
Plant response rating, Foxtail, Green [9, 18]: 98
Plant response rating, Foxtail, Green [9, 19]: 100
Plant response rating, Foxtail, Green [9, 20]: 100
Foxtail, Green plant response rating ([9]; Preemergence, scale 0 to 100): 40
Morningglory plant response rating ([10]; postemergence, 0-100 scale): 0
Plant response rating, Morningglory [10, 15]: 0
Plant response rating, Morningglory [10, 16]: 0
Plant response rating, Morningglory [10, 17]: 0
Plant response rating, Morningglory [10, 18]: 0
Plant response rating, Morningglory [10, 19]: 0
Plant response rating, Morningglory [10, 20]: 0
Morningglory plant response rating ([10]; Preemergence, scale 0 to 100): 0
Ragweed plant response rating ([11]; postemergence, 0-100 scale): 0
Plant response rating, Ragweed [11, 15]: 0
Plant response rating, Ragweed [11, 16]: 0
Plant response rating, Ragweed [11, 17]: 0
Plant response rating, Ragweed [11, 18]: 0
Plant response rating, Ragweed [11, 19]: 0
Plant response rating, Ragweed [11, 20]: 0
Ragweed plant response rating ([11]; Preemergence, scale 0 to 100): 0
Lambsquarters plant response rating ([12]; postemergence, 0-100 scale): 0
Plant response rating, Lambsquarters [12, 15]: 0
Plant response rating, Lambsquarters [12, 16]: 0
Plant response rating, Lambsquarters [12, 17]: 0
Plant response rating, Lambsquarters [12, 18]: 0
Plant response rating, Lambsquarters [12, 19]: 0
Plant response rating, Lambsquarters [12, 20]: 0
Lambsquarters plant response rating ([12]; Preemergence, scale 0 to 100): 0
Oat, Wild plant response rating ([13]; postemergence, 0-100 scale): 85
Plant response rating, Oat, Wild [13, 15]: 95
Plant response rating, Oat, Wild [13, 16]: 95
Plant response rating, Oat, Wild [13, 17]: 98
Plant response rating, Oat, Wild [13, 18]: 65
Plant response rating, Oat, Wild [13, 19]: 80
Plant response rating, Oat, Wild [13, 20]: 95
Oat, Wild plant response rating ([13]; Preemergence, scale 0 to 100): 0
Wheat plant response rating ([14]; postemergence, 0-100 scale): 15
Plant response rating, Wheat [14, 15]: 50
Plant response rating, Wheat [14, 17]: 95
Plant response rating, Wheat [14, 18]: 0
Plant response rating, Wheat [14, 19]: 5
Plant response rating, Wheat [14, 20]: 70
Wheat plant response rating ([14]; Preemergence, scale 0 to 100): 0
